Patent US20220105244A1, “METHODS AND COMPOSITIONS FOR PROTECTION OF BIOPROSTHETIC HEART VALVE TISSUE FROM GLYCATION AND ASSOCIATED PROTEIN INCORPORATION” (The Trustees of Columbia University in the City of New York, priority 2019, published 2022)

Assays:
[1] = tested on: N-carboxyethyl lysine (CEL); experiment: Immunohistochemistry with antibody for N-carboxyethyl lysine after methylglyoxal glycation; design: species or system bovine; conditions: anti-glycated vs untreated tissue
Method: (§1) Anti-glycation pretreatments have been performed for 1-, 2-, 4-, and 6-week-long durations for both 1,5-dihydro-2H-pyrrol-2-one as well as 4-(1-methyl-1H-imidazol-4-yl)butanal, and diversified 1-week glycation reactions have been applied to these samples. Namely, these conditions are 50 mM glyoxal, 50 mM methylglyoxal, and 50 mM glyoxal+5% human serum albumin. An antibody for N-carboxyethyl lysine, a major product of methylglyoxal glycation, was utilized for immunohistochemical staining.

[2] = tested on: N-carboxymethyl lysine (CML); experiment: Immunohistochemistry with anti-CML antibody after glyoxal glycation; design: species or system bovine
Method: As a preliminary specific chemical analysis, immunohistochemistry was performed using a standard anti-CML (AbCAM #ab27684 @ 1:5000 dilution) antibody to probe for the best-studied glycation product, N-carboxymethyl lysine, after control or anti-glycated glutaraldehyde-fixed bovine pericardium tissue discs were glycated under aggressive conditions known to efficiently generate CML (one week incubation at 37° C. in 50 mM glyoxal). Brown staining indicates presence of CML.

[3] = tested on: glutaraldehyde-fixed bovine pericardium; experiment: Maillard browning of anti-glycation pre-treated tissue discs after in vitro glycation; conditions: for tissue browning due to aggressive glycation: 6 weeks anti-glycation pretreatment at 37° C. (1,5 at pH 9.0), 1-week 50 mM glyoxal, methylglyoxal or glyoxal+5% human serum albumin
Method: A general method flow chart is described below. First, standard 0.6% glutaraldehyde fixation protocol (+/−any additional technology, e.g., anti-calcification). Second, wash protocol in phosphate-buffered saline to remove residual unreacted glutaraldehyde or other compounds. Third, incubation in subject compounds dissolved in, for example, phosphate-buffered saline at 37° C. for 6 weeks. Fourth, wash protocol in phosphate-buffered saline to remove residual unreacted anti-glycation precursor. Fifth, storage (usually in 0.2% glutaraldehyde.
as §1
“Maillard browning” is a classic and straightforward visual indicator of glycation. Formation of glycation products causes brown hues to develop in glycated tissues and proteinaceous materials. As a preliminary endpoint for initial anti-glycation efficacy studies, the inventors sought to evaluate prevention of browning due to glycation in glutaraldehyde-fixed bovine pericardium, the most common bioprosthetic heart valve biomaterial (and also widely used in other bioprosthetic implants), by pretreatment with the designed anti-glycation compounds. Short term (3-day) and long-term (6-week) protective incubation durations at physiological temperature (37° C.) were chosen as a starting point. Anti-glycation was followed by extensive washing of tissue in phosphate-buffered saline (PBS) to remove any unreacted anti-glycation precursor and extreme glycation conditions (1-week incubation in 50 mM doses of either methylglyoxal or glyoxal, two of the most reactive physiologically-relevant glycation precursors, or 50 mM glyoxal+5% human serum albumin, which exacerbates browning). Treatments and evaluation of browning have been performed with 1,5-dihydro-2H-pyrrol-2-one (“1,5,” compound 3) and 4-(1H-Imidazol-4-yl)butanal (“4IB”).

[4] = tested on: glutaraldehyde-fixed bovine pericardium (Glut-BP); experiment: Uptake of 14C-radiolabeled glyoxal by glut-BP; conditions: 6-week pre-incubation at 37° C., 1× (7.2 μmol/mg glut-BP); 24 hours at 37° C. in 50 mM 14C-glyoxal
Method: FIG. 9. Bar graph of the quantitation of uptake by glutaraldehyde-fixed bovine pericardium (Glut-BP) of radioactively-labeled glycation precursor after 24 hours of incubation at 37° C. in 50 mM ^14C-radiolabeled glyoxal. Glut-BP was either kept in phosphate-buffered saline solution (PBS) in storage at 4° C. or placed in pre-incubation at 37° C. in PBS, PBS+1×1,5-dihydro-2H-pyrrol-2-one at 7.2 μmol/mg glut-BP, or PBS+1×4-(1-methyl-1H-imidazol-4-yl)butanal at 7.2 μmol/mg glut-BP.
The above interpretations are supported by quantitation of uptake of glycation precursor by glut-BP using carbon-14-radiolabeled glyoxal, which indicates approximately 15% decreases in overall glycation versus by an extreme concentration (50 mM) of glyoxal in glut-BP pre-treated by 6-week incubation at 37° C. in PBS alone or 1×1,5 or 1×4IB, shown in FIG. 9.

| SMILES | CEL formation in response to methylglyoxal [1] | CML formation in response to glyoxal ([2]; anti-glycated vs untreated tissue) | CML formation ([2]; pretreatment for 6 weeks, one week incubation at 37° C. in 50 mM glyoxal) | protection against optical browning ([3]; 50 mM glyoxal, 50 mM methylglyoxal, or 50 mM glyoxal+5% HSA for 7 days at 37° C.) | tissue browning due to aggressive glycation [3] | incorporation of glycated (browned) albumin (tissue color, precursor alone vs precursor plus albumin) ([3]; 6 weeks pretreatment, 50 mM glyoxal+5% human serum albumin) | decrease in overall glycation (uptake of 14C-glyoxal) [4] |
| --- | --- | --- | --- | --- | --- | --- | --- |
| O=C1C=CCN1 [Compound 3, 1,5-dihydro-2H-pyrrol-2-one] | still formed similarly as in untreated tissue | still formed similarly as in untreated tissue | not mitigated | dramatic protection | dramatic diminishment of tissue browning | effectively blocks incorporation of glycated (browned) albumin | approximately 15% |
| O=CCCCc1c[nH]cn1 [Compound 5, 4-(1H-Imidazol-4-yl)butanal] | – | – | – | – | Protection from browning is less pronounced | – | approximately 15% |
